Laboratory results reported in the Kinase Knowledgebase extract (Sharma et al. 2016).

Target: PIK3CG (human) (UniProt P48736)
Assay: Assessment of PIK3CG Kinase Activity

PIK3CG (human), sequence (P48736 whole entry, looked up): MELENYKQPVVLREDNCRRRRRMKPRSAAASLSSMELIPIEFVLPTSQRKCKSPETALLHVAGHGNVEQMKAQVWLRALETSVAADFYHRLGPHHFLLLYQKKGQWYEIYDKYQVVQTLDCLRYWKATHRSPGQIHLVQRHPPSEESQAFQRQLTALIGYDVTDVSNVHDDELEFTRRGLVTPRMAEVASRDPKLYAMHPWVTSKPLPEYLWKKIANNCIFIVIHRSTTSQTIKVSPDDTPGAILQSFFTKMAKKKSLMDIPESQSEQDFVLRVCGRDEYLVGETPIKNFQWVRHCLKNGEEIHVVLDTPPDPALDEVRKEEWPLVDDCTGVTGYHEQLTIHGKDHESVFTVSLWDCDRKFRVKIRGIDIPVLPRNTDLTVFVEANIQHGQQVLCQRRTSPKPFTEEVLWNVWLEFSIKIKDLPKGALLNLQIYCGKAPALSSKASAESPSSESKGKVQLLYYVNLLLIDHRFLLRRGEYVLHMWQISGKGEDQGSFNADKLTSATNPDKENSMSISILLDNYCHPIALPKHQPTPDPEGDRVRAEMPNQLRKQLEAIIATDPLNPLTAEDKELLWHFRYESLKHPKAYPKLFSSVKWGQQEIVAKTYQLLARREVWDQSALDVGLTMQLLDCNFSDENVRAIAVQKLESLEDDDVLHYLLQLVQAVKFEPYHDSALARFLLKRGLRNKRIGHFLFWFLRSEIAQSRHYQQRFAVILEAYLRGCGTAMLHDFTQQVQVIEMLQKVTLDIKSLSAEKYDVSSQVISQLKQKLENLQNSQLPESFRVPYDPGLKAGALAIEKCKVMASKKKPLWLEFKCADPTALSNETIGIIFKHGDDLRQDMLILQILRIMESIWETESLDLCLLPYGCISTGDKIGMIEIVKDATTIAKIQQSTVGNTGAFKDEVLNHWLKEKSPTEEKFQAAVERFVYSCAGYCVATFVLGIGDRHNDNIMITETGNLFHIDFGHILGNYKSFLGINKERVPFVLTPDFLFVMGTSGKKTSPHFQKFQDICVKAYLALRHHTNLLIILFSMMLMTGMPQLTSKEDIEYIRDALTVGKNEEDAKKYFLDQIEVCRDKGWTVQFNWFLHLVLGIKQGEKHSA

| SMILES | IC50 |
| --- | --- |
| CC(=O)Nc1nc2c(s1)-c1nc(-c3cc(C#CC4CCN(C(=O)C(C)C)CC4)ccc3Cl)ncc1CC2 | < 600 nM |
| CNCC#Cc1cccc(-c2ncc3c(n2)-c2sc(NC(C)=O)nc2CC3)c1 | < 600 nM |
| COC1(C#Cc2ccc(Cl)c(-c3ncc4c(n3)-c3sc(NC(C)=O)nc3CC4)c2)CCN(C2CCCC2)CC1 | < 600 nM |
| COC1(C#Cc2ccc(F)c(-c3ncc4c(n3)-c3sc(NC(C)=O)nc3CC4)c2)CCN(C2CCCC2)CC1 | < 600 nM |
| CC(=O)Nc1nc2c(s1)-c1nc(-c3cc(C#CCCNCC4CCCC4)ccc3Cl)ncc1CC2 | < 600 nM |
| CC(=O)Nc1nc2c(s1)-c1nc(-c3cc(C#CCNC4CCN(C)CC4)ccc3Cl)ncc1CC2 | < 600 nM |
| CC(=O)Nc1nc2c(s1)-c1nc(-c3cc(C#CCNC(=O)C4CC4)ccc3Cl)ncc1CC2 | < 600 nM |
| CC(=O)Nc1nc2c(s1)-c1nc(-c3cc(C#CCCN(C)C(C)=O)ccc3Cl)ncc1CC2 | < 600 nM |
| CC(=O)Nc1nc2c(s1)-c1nc(-c3cc(C#CCCN(C)C)ccc3Cl)ncc1CC2 | < 600 nM |
| COC1CCN(S(=O)(=O)NCC#Cc2ccc(Cl)c(-c3ncc4c(n3)-c3sc(NC(C)=O)nc3CC4)c2)CC1 | < 600 nM |
| CC(=O)Nc1nc2c(s1)-c1nc(-c3cc(Cl)cc(C#CC4(N)CCCCC4)c3)ncc1CC2 | < 600 nM |
| CCN(C)S(=O)(=O)NCC#Cc1ccc(Cl)c(-c2ncc3c(n2)-c2sc(NC(C)=O)nc2CC3)c1 | < 600 nM |
| CC(=O)Nc1nc2c(s1)-c1nc(-c3cc(C#CCN4CCN(C(C)C)CC4)ccc3Cl)ncc1CC2 | < 600 nM |
| CC(=O)Nc1nc2c(s1)-c1nc(-c3cc(C#C[C@@H]4CCCN4)ccc3Cl)ncc1CC2 | < 600 nM |
| CC(=O)Nc1nc2c(s1)-c1nc(-c3cc(C#CC4(O)CCN(C5CCCC5)CC4)ccc3F)ncc1CC2 | < 600 nM |
| CCC(N)(C#Cc1ccc(Cl)c(-c2ncc3c(n2)-c2sc(NC(C)=O)nc2CC3)c1)CC | < 600 nM |
| CC(=O)Nc1nc2c(s1)-c1nc(-c3cc(C#CCO[C@@H]4CN5CCC4CC5)ccc3Cl)ncc1CC2 | < 600 nM |
| CC(=O)Nc1nc2c(s1)-c1nc(-c3cccc(C#CCNC(=O)C4CCCC4)c3)ncc1CC2 | < 600 nM |
| CC(=O)Nc1nc2c(s1)-c1nc(-c3cc(C#CCNC(=O)NC(C)(C)C)ccc3Cl)ncc1CC2 | < 600 nM |
| C=CC#Cc1ccc(Cl)c(-c2ncc3c(n2)-c2sc(NC(C)=O)nc2CC3)c1 | < 600 nM |
| CC(=O)Nc1nc2c(s1)-c1nc(-c3cc(C#CCN4CCN(C)C(=O)C4)ccc3Cl)ncc1CC2 | < 600 nM |
| CCNC(=O)N1CCC(C#Cc2ccc(Cl)c(-c3ncc4c(n3)-c3sc(NC(C)=O)nc3CC4)c2)CC1 | < 600 nM |

| SMILES | IC50 |
| --- | --- |
| CC(=O)Nc1nc2c(s1)-c1nc(-c3cccc(C#CCN(C)C)c3)ncc1CC2 | < 600 nM |
| CC(=O)Nc1nc2c(s1)-c1nc(-c3cc(C#CCNCC4CC4)ccc3Cl)ncc1CC2 | < 600 nM |
| CC(=O)Nc1nc2c(s1)-c1nc(-c3cc(C#CCCN(C)C(C)C)ccc3Cl)ncc1CC2 | < 600 nM |
| CC(=O)Nc1nc2c(s1)-c1nc(-c3cc(C#Cc4ccccn4)ccc3Cl)ncc1CC2 | < 600 nM |
| CC(=O)Nc1nc2c(s1)-c1nc(-c3cc(C#CCNCCN4CCCC4)ccc3Cl)ncc1CC2 | < 600 nM |
| CCNC1(C#Cc2ccc(Cl)c(-c3ncc4c(n3)-c3sc(NC(C)=O)nc3CC4)c2)CCCCC1 | < 600 nM |
| CC(=O)Nc1nc2c(s1)-c1nc(-c3cc(C#CCN4CC[S+]([O-])CC4)ccc3Cl)ncc1CC2 | < 600 nM |
| CC(=O)Nc1nc2c(s1)-c1nc(-c3cc(C#CCNC(=O)CC4CCCCC4)ccc3Cl)ncc1CC2 | < 600 nM |
| CNC(=O)NC1(C#Cc2ccc(Cl)c(-c3ncc4c(n3)-c3sc(NC(C)=O)nc3CC4)c2)CCCCC1 | < 600 nM |
| CC(=O)Nc1nc2c(s1)-c1nc(-c3cc(C#CCNC(=O)N(C)C)ccc3Cl)ncc1CC2 | < 600 nM |
| CC(=O)Nc1nc2c(s1)-c1nc(-c3cc(C#CCNC(=O)CC4CC4)ccc3Cl)ncc1CC2 | < 600 nM |
| CC(=O)Nc1nc2c(s1)-c1nc(-c3cccc(C#CCNC(=O)CC(C)(C)C)c3)ncc1CC2 | < 600 nM |
| CC(=O)Nc1nc2c(s1)-c1nc(-c3cccc(C#CC4CCN(CC5CCCC5)CC4)c3)ncc1CC2 | < 600 nM |
| CC(=O)Nc1nc2c(s1)-c1nc(-c3cc(C#CCNS(=O)(=O)Cc4ccccc4)ccc3Cl)ncc1CC2 | < 600 nM |
| CC(=O)Nc1nc2c(s1)-c1nc(-c3cc(C#CCNS(=O)(=O)CC(F)(F)F)ccc3Cl)ncc1CC2 | < 600 nM |
| CC(=O)Nc1nc2c(s1)-c1nc(-c3cc(C#Cc4ccccc4)ccc3Cl)ncc1CC2 | < 600 nM |
| CC(=O)Nc1nc2c(s1)-c1nc(-c3cc(C#CC4CCN(C(C)C)CC4)ccc3Cl)ncc1CC2 | < 600 nM |
| CC(=O)Nc1nc2c(s1)-c1nc(-c3cc(C#CCCCN4CCN(C)CC4)ccc3Cl)ncc1CC2 | < 600 nM |
| CC(=O)Nc1nc2c(s1)-c1nc(-c3cc(C#CC4CCN(C(=O)NC(C)(C)C)CC4)ccc3Cl)ncc1CC2 | < 600 nM |
| CC(=O)Nc1nc2c(s1)-c1nc(-c3cccc(C#CC4CCN(C)CC4)c3)ncc1CC2 | < 600 nM |
| CC(=O)Nc1nc2c(s1)-c1nc(-c3cc(C#CC4(NC(C)C)CCCCC4)ccc3Cl)ncc1CC2 | < 600 nM |
| CC(=O)Nc1nc2c(s1)-c1nc(-c3cc(C#CCNS(=O)(=O)C4CCCCC4)ccc3Cl)ncc1CC2 | < 600 nM |

| SMILES | IC50 |
| --- | --- |
| CC(=O)Nc1nc2c(s1)-c1nc(-c3cc(C#CCNC4CCCC4)ccc3Cl)ncc1CC2 | < 600 nM |
| CC(=O)Nc1nc2c(s1)-c1nc(-c3cc(C#CC4(N5CCCC5)CCCCC4)ccc3Cl)ncc1CC2 | < 600 nM |
| CC(=O)Nc1nc2c(s1)-c1nc(-c3cc(C#CCNS(=O)(=O)N4CCCC4)ccc3Cl)ncc1CC2 | < 600 nM |
| CC(=O)Nc1nc2c(s1)-c1nc(-c3cc(C#CC4CCN(C(=O)N5CCCC5)CC4)ccc3Cl)ncc1CC2 | < 600 nM |
| CNC(=O)N1CCC(C#Cc2ccc(Cl)c(-c3ncc4c(n3)-c3sc(NC(C)=O)nc3CC4)c2)CC1 | < 600 nM |
| CC(=O)Nc1nc2c(s1)-c1nc(-c3cc(C#CCN(C)S(=O)(=O)N(C)C)ccc3Cl)ncc1CC2 | < 600 nM |
| CC(=O)Nc1nc2c(s1)-c1nc(-c3cc(Cl)cc(C#CCNC(=O)CC(C)(C)C)c3)ncc1CC2 | < 600 nM |
| CC(=O)Nc1nc2c(s1)-c1nc(-c3cccc(C#CCNS(=O)(=O)N(C)C)c3)ncc1CC2 | < 600 nM |
| CC(=O)Nc1nc2c(s1)-c1nc(-c3cc(C#CCn4ccnc4)ccc3Cl)ncc1CC2 | < 600 nM |
| CC(=O)Nc1nc2c(s1)-c1nc(-c3cc(C#CCNS(=O)(=O)C(C)C)ccc3Cl)ncc1CC2 | < 600 nM |
| CC(=O)Nc1nc2c(s1)-c1nc(-c3cc(C#CCCCN4CCCC4)ccc3Cl)ncc1CC2 | < 600 nM |
| CC(=O)Nc1nc2c(s1)-c1nc(-c3cc(C#CCN4CCC(C(N)=O)CC4)ccc3Cl)ncc1CC2 | < 600 nM |
| CC(=O)Nc1nc2c(s1)-c1nc(-c3cc(C#CCNC(=O)CC(C)(C)C)ccc3Cl)ncc1CC2 | < 600 nM |
| CC(=O)Nc1nc2c(s1)-c1nc(-c3cccc(C#CC4(O)CCN(C5CCCC5)CC4)c3)ncc1CC2 | < 600 nM |
| CC(=O)Nc1nc2c(s1)-c1nc(-c3cc(C#CCN(C)C(=O)C(C)C)ccc3Cl)ncc1CC2 | < 600 nM |
| CC(=O)Nc1nc2c(s1)-c1nc(-c3cc(C#CC4CCNCC4)ccc3Cl)ncc1CC2 | < 600 nM |
| CC(=O)Nc1nc2c(s1)-c1nc(-c3cc(C#CC4(N(C)C)CCCCC4)ccc3Cl)ncc1CC2 | < 600 nM |
| CC(=O)Nc1nc2c(s1)-c1nc(-c3cc(C#CC4(O)CCN(C)CC4)ccc3Cl)ncc1CC2 | < 600 nM |
| CC(=O)Nc1nc2c(s1)-c1nc(-c3cc(C#CC4CCCCC4)ccc3Cl)ncc1CC2 | < 600 nM |
| CC(=O)Nc1nc2c(s1)-c1nc(-c3cc(C#CCCCNC4CCCC4)ccc3Cl)ncc1CC2 | < 600 nM |
| CC(=O)Nc1nc2c(s1)-c1nc(-c3cc(C#Cc4cncn4C)ccc3Cl)ncc1CC2 | < 600 nM |
| CC(=O)Nc1nc2c(s1)-c1nc(-c3cc(Cl)cc(C#CCN(C)S(C)(=O)=O)c3)ncc1CC2 | < 600 nM |

| SMILES | IC50 |
| --- | --- |
| CC(=O)Nc1nc2c(s1)-c1nc(-c3cc(C#CCC4CCCC4)ccc3Cl)ncc1CC2 | < 600 nM |
| CC(=O)Nc1nc2c(s1)-c1nc(-c3cc(C#CCN)ccc3Cl)ncc1CC2 | < 600 nM |
| CC(=O)Nc1nc2c(s1)-c1nc(-c3cc(C#CCNS(=O)(=O)C(F)(F)F)ccc3Cl)ncc1CC2 | < 600 nM |
| COCC#Cc1ccc(Cl)c(-c2ncc3c(n2)-c2sc(NC(C)=O)nc2CC3)c1 | < 600 nM |
| CC(=O)NCC#Cc1ccc(Cl)c(-c2ncc3c(n2)-c2sc(NC(C)=O)nc2CC3)c1 | < 600 nM |
| CC(=O)Nc1nc2c(s1)-c1nc(-c3cc(C#CCNCC4CCCC4)ccc3Cl)ncc1CC2 | < 600 nM |
| CC(=O)Nc1nc2c(s1)-c1nc(-c3cc(C#CCN(C)C)ccc3Cl)ncc1CC2 | < 600 nM |
| CC(=O)Nc1nc2c(s1)-c1nc(-c3cc(C#CCNC(=O)CC4CCCC4)ccc3Cl)ncc1CC2 | < 600 nM |
| CC(=O)Nc1nc2c(s1)-c1nc(-c3cc(C#CC4CCN(S(=O)(=O)C(C)C)CC4)ccc3Cl)ncc1CC2 | < 600 nM |
| CC(=O)Nc1nc2c(s1)-c1nc(-c3cc(C#CCNS(=O)(=O)C4CC4)ccc3Cl)ncc1CC2 | < 600 nM |
| CC(=O)Nc1nc2c(s1)-c1nc(-c3cc(C#CCN(C)C(=O)C4CCCC4)ccc3Cl)ncc1CC2 | < 600 nM |
| CC(=O)Nc1nc2c(s1)-c1nc(-c3cc(C#CC4CCN(S(C)(=O)=O)CC4)ccc3Cl)ncc1CC2 | < 600 nM |
| CC(=O)Nc1nc2c(s1)-c1nc(-c3cc(C#CCCCNC(C)C)ccc3Cl)ncc1CC2 | < 600 nM |
| CC(=O)Nc1nc2c(s1)-c1nc(-c3cc(C#CCN4CCS(=O)(=O)CC4)ccc3Cl)ncc1CC2 | < 600 nM |
| CC(=O)Nc1nc2c(s1)-c1nc(-c3cc(C#CCNC(=O)CC(C)C)ccc3Cl)ncc1CC2 | < 600 nM |
| CC(=O)Nc1nc2c(s1)-c1nc(-c3cc(C#CC4CCN(C(=O)NC(C)C)CC4)ccc3Cl)ncc1CC2 | < 600 nM |
| CC(=O)Nc1nc2c(s1)-c1nc(-c3cc(C#CCN(C)S(=O)(=O)N4CCOCC4)ccc3Cl)ncc1CC2 | < 600 nM |
| CC(=O)Nc1nc2c(s1)-c1nc(-c3cc(C#CC4CCN(C(=O)N(C)C)CC4)ccc3Cl)ncc1CC2 | < 600 nM |
| CC(=O)Nc1nc2c(s1)-c1nc(-c3cc(C#CC4(O)CCN(C(C)C)CC4)ccc3Cl)ncc1CC2 | < 600 nM |
| CC(=O)Nc1nc2c(s1)-c1nc(-c3cc(C#CCN(C)CC(C)C)ccc3Cl)ncc1CC2 | < 600 nM |
| CNCC#Cc1ccc(Cl)c(-c2ncc3c(n2)-c2sc(NC(C)=O)nc2CC3)c1 | < 600 nM |
| CC(=O)Nc1nc2c(s1)-c1nc(-c3cc(C#CCCNC(C)C)ccc3Cl)ncc1CC2 | < 600 nM |
